Data as given in patent US20240376437A1, “TARGETING VON WILLEBRAND FACTOR TO MODEL DISEASE IN HUMAN PLURIPOTENT STEM CELLS” (University of Washington, priority 2023, published 2024).

What was measured:
Assay type in all cases: cell-based, human
[1] = tested on: hPSC-EC; experiment: hPSC-EC maturation: cell size and CD144 junction morphology; details: 0 or 3 μM DAPT
Method: (§1) Cells were fixed with 4% paraformaldehyde in 1×PBS for 15 minutes and subsequently washed three times with 1×PBS. For immunofluorescence, fixed samples were blocked with 5% donkey serum plus 0.1% Triton X-100 in 1×PBS, incubated overnight in 3% bovine serum albumin (BSA) (Sigma Aldrich)+1×PBS with primary antibodies, washed, incubated with secondary antibodies, washed and imaged. Primary antibodies included antibodies for VWF (Agilent Technologies; A008202), β-Actin (Cell Signaling Technology; 4970); DAPI (Cayman Chemical Company; 14285), Angiopoietin 2 (R&D Systems; AF623), CD31 (BD Biosciences; 555444), CD144 (BD Biosciences; 555661), and Notch1 (Cell Signaling Technology; 3608S). Fluorescence labeled antibodies included anti-rabbit IgG secondary antibody Alexa Fluor 488 (Thermo Fisher Scientific; A32731), anti-mouse IgG secondary antibody Alexa Fluor 555 (Thermo Fisher Scientific; A21422), and FITC anti-VWF antibody (Abcam; ab8822). To compare different experimental conditions, images were collected at identical microscopy setup using wide field or confocal fluorescence microscope. […]
hPSC-EC were treated with blood plasma or compounds to test their effects on VWF expression level in cells. […] Due to the high fluorescence background in 40% and 80% plasma treated cells, we only used less than 40% plasma to treat cells for immunofluorescence imaging.

[2] = tested on: VWF expression level in hPSC-EC; experiment: VWF and CD144 protein in hPSC-EC by immunoblot
Method: Whole cells lysate was extracted using 1× RIPA lysis and extraction buffer (Thermo Fisher Scientific) supplemented with 1× protease inhibitor cocktail (Sigma Aldrich) and 1 μL Benzonase nuclease (Sigma Aldrich) per sample. Each sample was supplied with 100 mM DTT (Sigma Aldrich) and 1× Laemmli sample buffer (Bio-Rad) and heated at 95° C. for 5 minutes. The primary antibodies above were added to samples and followed by anti-rabbit or anti-mouse IgG secondary antibody conjugated with HRP (Thermo Fisher Scientific; 31460 or 31430). Immunoblots were imaged in the presence of Pierce ECL Western Blotting substrate (Thermo Fisher Scientific) and quantified using Fiji software.
Ten compounds were added separately to hPSC culture medium on day 6 of the cell differentiation and maintained in the media thereafter. The untreated cell culture medium was EGM with additional 20 ng/ml VEGF, 20 ng/ml FGF, and 1 μM Chir99021. Based on untreated cell culture medium, we tested the following additional concentrations of compounds: VEGF (30, 70, 120 ng/ml, Peprotech 100-20), FGF (30, 70, 120 ng/ml, PeproTech 100-18B), human transforming growth factor β1 (TGFβ1, 1, 3, 10 ng/ml, R&D Systems 240-B), lipopolysaccharide (LPS, 1, 3, 10 ng/ml, Santa Cruz sc-3535), human interferon gamma (IFN, 1, 3, 10 ng/ml, Peprotech 300-02), human noggin (1, 3, 10 ng/ml, Peprotech, 120-10C), Chir99021 (1, 3, 10 µM, Reprocell 04-0004-10), Smoothened agonist (SAG, 1, 3, 10 μM, Cayman Chemical 11914), BMP4 (1, 3, 10, 50 ng/ml, R&D Systems 314-BP), or DAPT (1, 3, 10 µM, Tocris 2634). Concentrations of these compounds that were likely to be safe and efficacious were used based on the literature and previous experience. To treat HUVEC with DAPT (Tocris 2634), 0/10/30 μM DAPT was added to the cell culture medium EGM on day 2 after cell passaging and maintained in the media thereafter. The cell culture medium with corresponding compound was changed every two days until cell fixation or cell lysis experiment on day 10-14 for hSPC-EC or day 7-9 for HUVEC.

[3] = tested on: VWF expression level in hPSC-EC; experiment: VWF expression level in hPSC-EC by immunofluorescence
Method: as §1
hPSC-EC were treated with blood plasma or compounds to test their effects on VWF expression level in cells. […] Due to the high fluorescence background in 40% and 80% plasma treated cells, we only used less than 40% plasma to treat cells for immunofluorescence imaging. […]

[4] = tested on: VWF level in HUVEC; experiment: VWF level in HUVEC treated with DAPT (immunofluorescence and immunoblot)
Method: Cells were fixed with 4% paraformaldehyde in 1×PBS for 15 minutes and subsequently washed three times with 1×PBS. For immunofluorescence, fixed samples were blocked with 5% donkey serum plus 0.1% Triton X-100 in 1×PBS, incubated overnight in 3% bovine serum albumin (BSA) (Sigma Aldrich)+1×PBS with primary antibodies, washed, incubated with secondary antibodies, washed and imaged. Primary antibodies included antibodies for VWF (Agilent Technologies; A008202), β-Actin (Cell Signaling Technology; 4970); DAPI (Cayman Chemical Company; 14285), Angiopoietin 2 (R&D Systems; AF623), CD31 (BD Biosciences; 555444), CD144 (BD Biosciences; 555661), and Notch1 (Cell Signaling Technology; 3608S). Fluorescence labeled antibodies included anti-rabbit IgG secondary antibody Alexa Fluor 488 (Thermo Fisher Scientific; A32731), anti-mouse IgG secondary antibody Alexa Fluor 555 (Thermo Fisher Scientific; A21422), and FITC anti-VWF antibody (Abcam; ab8822). To compare different experimental conditions, images were collected at identical microscopy setup using wide field or confocal fluorescence microscope. Image analysis was performed using Fiji software.
Whole cells lysate was extracted using 1× RIPA lysis and extraction buffer (Thermo Fisher Scientific) supplemented with 1× protease inhibitor cocktail (Sigma Aldrich) and 1 μL Benzonase nuclease (Sigma Aldrich) per sample. […]

[5] = tested on: VWF at the hPSC-EC surface; experiment: VWF string formation assay under flow after PMA stimulation; details: 3 μM DAPT from day 6; 100 ng/mL PMA 20 min, flow 2.5 dyn/cm^2 5 min
Method: The hPSC-EC from day 5 of cell differentiation were seeded in a flow chamber (ibidi GmbH, μ-slide VI 0.4, 17×3.8×0.4 mm) precoated with 2.5 mg/mL collagen (Corning, Rate Tail Collagen Type I). Cells were fed by EGM endothelial cell growth medium+20 ng/ml recombinant human VEGF165+20 ng/mL recombinant human FGF-basic+1 μM Chir-99021 until day 12 of cell differentiation. The flow chamber was washed by 100 μl EBM endothelial cell growth basal medium (Lonza) twice. Cells were stimulated in EBM medium with 100 ng/mL PMA at stasis at 37° C. and 5% CO2 for 20 minutes and then followed by flow (2.5 dyn/cm^2 wall shear stress) using a syringe pump for 5 minutes. After flow stopped, the flow chamber was blocked by 6% BSA (Sigma Aldrich) in EBM medium for 10 minutes. […] Cells were washed by EBM medium for three times and imaged under Olympus wide field fluorescence microscope. […]
VWF forms strings on HUVEC surface upon stimulation by agonists such as phorbol 12-myristate 13-acetate (PMA) (FIG. 10A). […] The effect of enhancing VWF level on VWF string formation was then evaluated. hPSC-EC were transferred into a microfluidic channel on day 5 of differentiation and treated with 3 μM DAPT from day 6 onwards. […] VWF attached to the EC surface was detected live by FITC-labeled anti-VWF antibody, which was introduced under flow. […]

C[C@H](NC(=O)Cc1cc(F)cc(F)c1)C(=O)N[C@H](C(=O)OC(C)(C)C)c1ccccc1 [DAPT]
Changes in hPSC-EC size or junctional morphology [1]: did not induce the changes | CD144 marker for EC ([2]; DAPT-treated hPSC-EC): does not affect CD144 | VWF protein by immunoblot ([2]; DAPT-treated hPSC-EC): confirmed the increase in VWF protein | DAPT final concentration at which VWF protein peaks (immunoblot) ([2]; hPSC-EC, DAPT 1, 3, 10 μM): ~3 µM | Levels of VWF by immunofluorescence in screen of ten compounds ([3]; added day 6 of differentiation, DAPT 1 μM): substantially increased levels of VWF | Increase of VWF fluorescence intensity vs untreated control, repeated trials ([3]; final concentration of 1 μM DAPT): approximately two-fold | VWF level in HUVEC by immunofluorescence and immunoblot ([4]; 0/10/30 μM DAPT): enhanced VWF level with increased DAPT concentrations | VWF increase compared to untreated controls ([4]; HUVEC, 10 μM DAPT): ~1.7 times | VWF attached to the EC surface of control hPSC-EC [5]: numerous foci of VWF at the cell surface | VWF string formation [5]: formed strings attached to the EC surface
